Assay results reported in patent publication US20120071451A1, “METHOD OF TREATING NONALCOHOLIC STEATOHEPATITIS WITH ELEVATED DOSES OF URSODEOXYCHOLIC ACID” (Aptalis Pharma Canada Inc., priority 2009, published 2012).
“Also recorded” adds a separate entry of the source.

Legend:
NASH patients = details: one year, 13-15 mg/kg/day; cited from earlier work
patients with NASH [1] = details: two years, 13-15 mg/kg/day; cited from earlier work
[2] = cited from earlier work
[3] = tested on: patients with histologically proven NASH; test: Multicenter randomized double-blind placebo-controlled clinical study of 28-35 mg/kg/day UDCA for treating NASH; type: in vivo, human; details: for Normalization ALAT: percent pts with normalized ALAT at 12 months; for Normalization ASAT: percent pts with normalized ASAT at 12 months
Description: A multicenter randomized double-blind placebo-controlled study was conducted to examine the efficacy and tolerability of 28-35 mg/kg/day UDCA in patients with histologically proven NASH, ALAT and/or ASAT greater than 50 IU/L. A total of 120 patients were planned to receive either UDCA or placebo for a period of 12 months. Treatment was administered with meals. During the study, liver biochemistry, tolerability and side effects were monitored regularly. During the study, overweight and obese patients were encouraged to lose weight by following a hypocaloric diet and to maintain a certain level of physical activity. Drug treatments taken by patients for associated medical conditions were allowed. At the end of the 12th month, patients underwent an end of study evaluation and study treatments were stopped.
Inclusion criteria: age of patients higher than 18 years; liver biopsy compatible with NASH: presence of steatosis >20% associated with hepatocyte ballooning and/or hepatic lobule necrosis during the last 18 months; ALAT or ASAT levels >50 IU/L at the screening visit (with at least 3 elevated transaminase levels in the last 12 months)
Exclusion criteria: hepatic biopsy done before the last 18 months; no more than one normal value of transaminases during the last 12 months; patient was treated by UDCA during the last 12 months; loss of weight of more than 15% between the time of the hepatic biopsy and the screening; alcohol consumption higher than 20 g/day for women or higher than 30 g/day for men; presence of other causes of hepatitis such as chronic hepatitis B or C, increased serum ferritin associated with homozygosity for the C282Y mutation, primary biliary cirrhosis, primary sclerosing cholangitis, well documented autoimmune hepatitis (specific autoantibody, hpergammaglobulinaemia, histology-compatible), alpha-1 anti-trypsin deficiency, Wilson's disease, HIV infection; secondary causes of NASH: long term amiodarone-induced NASH, corticotherapy, obesity surgery within the last 2 years, Tamoxifen® treatment; Child's B or Child's C grade cirrhosis; presence of liver carcinoma; currently treated or treated during the past three years of hepatic biopsy with rosilitazone or pioglitazone; treatment with vitamin E during the past six months before screening; pregnant or breastfeeding women; unavailable histology slides for reading by the central laboratory.
Discontinuation criteria: Subjects were free to discontinue the study at any time for any or for no reason, and without prejudice to further treatment. Patients who withdrew subsequent to the pre-study evaluations but before receiving any study medication were not considered dropouts and were not included in the database. Patients who were included in the study and received at least one dose of study medication were included in the database and considered part of the safety population. Patients who were included in the study and received a dose of study medication and for whom at least one post-baseline evaluation was available were analyzed as part of the Intent-to-Treat (ITT) population. Patients from the ITT population who completed the study without any major protocol violations were analyzed as part of the Per Protocol (PP) population.
Main Endpoints: The primary endpoint was percent change in ALAT at 12 months vs. baseline. The secondary endpoints included: percent change in ASAT at 12 months vs. baseline; percent change Gamma-GT at 12 months vs. baseline; percent pts with normalized ALAT at 12 months; percent pts with normalized ASAT at 12 months; change in fibrosis index (FibroTest); change in inflammation index (Actitest); change in metabolic syndrome markers; and safety.
FibroTest is a non-invasive blood test that provides a quantitative estimate of liver fibrosis and can be used to predict advanced fibrosis. ActiTest is a non-invasive blood test that is used to assess the activity of liver disease by measuring the degree of necrosis and inflammation. […]

adult patients with PSC = details: cited from earlier work
patients with NASH [4] = details: 15 mg/kg/day; cited from earlier work
[5] = 28-35 mg/kg/day UDCA in NASH patients
[6] = mean change at 12 months vs. baseline, ITT, 30 mg/kg/day
[7] = by the end of the study, n=76, 28-30 mg/kg/day

C[C@H](CCC(=O)O)[C@H]1CC[C@H]2[C@@H]3[C@@H](O)C[C@@H]4C[C@H](O)CC[C@]4(C)[C@H]3CC[C@]12C [UDCA, 3α, 7β-dihydroxy-5β-cholan-24-oic acid]
Fibrosis or inflammation (NASH patients): did not change | Liver enzyme and steatosis levels (NASH patients): improved | Efficacy, UDCA treatment group versus placebo group (patients with NASH [1]): did not show any differences | Solubility in chloroform ([2]; chloroform): slightly soluble | Solubility in ethanol ([2]; ethanol): freely soluble | Solubility in ether ([2]; ether): sparingly soluble | Solubility in glacial acetic acid ([2]; glacial acetic acid): freely soluble | Solubility in intestinal fluids ([2]; intestinal fluids, compared with water): more soluble | Solubility in water ([2]; water): virtually insoluble; also recorded: practically insoluble | Asthenia and RUQP [3, 5]: symptomatic improvement | Safety [3, 5]: without any significant safety concerns | ActiTest (effect on liver inflammation) change vs. baseline, Mean ([3]; ITT, at 6 months): −31.41% | FibroTest (effect on fibrosis) change vs. baseline, Mean ([3]; ITT, at 6 months): −9.15% | ActiTest (effect on liver inflammation) change vs. baseline, Mean ([3]; ITT, at 12 months): −30.97% | FibroTest (effect on fibrosis) change vs. baseline, Mean ([3]; ITT, at 12 months): −8.11% | ActiTest (effect on liver inflammation) change vs. baseline, Mean ([3]; PP, at 6 months): −31.23% | FibroTest (effect on fibrosis) change vs. baseline, Mean ([3]; PP, at 6 months): −9.68% | ActiTest (effect on liver inflammation) change vs. baseline, Mean ([3]; PP, at 12 months): −27.33% | FibroTest (effect on fibrosis) change vs. baseline, Mean ([3]; PP, at 12 months): −5.40% | GI symptoms (diarrhea, abdominal pain, motility problems) frequency versus placebo group ([3]; UDCA treatment group vs placebo group): −3 × | Glycemia ([3]; UDCA treatment group, increased in placebo group (p=0.023)): remained stable | HbA1c versus placebo ([3]; at 6 and 12 months (p<0.05)): lower | Insulinemia versus placebo ([3]; at 12 months (p=0.038)): lower | Fibrosis levels compared to placebo group ([3]; both ITT and PP populations): significant improvement | Liver inflammation levels compared to placebo group ([3]; both ITT and PP populations): significant improvement | Mild diarrhea, abdominal pain, and gastrointestinal motility disorders versus placebo group ([3]; human, in vivo): more | Time of maximum effect, percent change from baseline ALAT ([3]; human, in vivo): 3 months | Time of maximum effect, percent change from baseline ASAT ([3]; human, in vivo): 3 months | Time of maximum effect, percent change from baseline in Gamma-GT ([3]; human, in vivo): 6 months | Δ % ALAT (SD) [3, 6]: −28±55% | Δ % ASAT (SD) [3, 6]: −8±59% | Δ % Gamma-GT (SD) [3, 6]: −51±28% | Individual effect on fibrosis: Fibrosis Decreased ([3]; percent of patients): 35.7% | Individual effect on fibrosis: Fibrosis Increased ([3]; percent of patients): 8.9% | Individual effect on fibrosis: Fibrosis Stable ([3]; percent of patients): 55.4% | Normalization ALAT ([3]; ITT): 25% | Normalization ALAT ([3]; PPP): 29% | Normalization ASAT ([3]; ITT): 32% | Normalization ASAT ([3]; PPP): 36% | Risk of a primary endpoint versus placebo (adult patients with PSC; adjusted for baseline stratification characteristics (p=0.011)): 2.2 times | Patients who had reached one of the pre-established clinical endpoints (number) (adult patients with PSC; [7]): 28 patients | Patients who had reached one of the pre-established clinical endpoints (percent) (adult patients with PSC; [7]): 37% | Amount of decrease of ASAT and AP levels versus placebo (adult patients with PSC; during therapy (p<0.01)): greater | Adjusted relative risk for death or transplantation (adult patients with PSC; versus placebo (p=0.029)): 3.3 | Serious adverse events (adult patients with PSC; vs. 43% placebo, p=0.03): 61% | ALAT and Gamma-GT levels (patients with NASH [4]): significant reduction | Steatosis, necroinflammation, or fibrosis (patients with NASH [4]): no improvements
